Experimental data from patent publication US20130304029A1, “LOADING AND RELEASE OF WATER-INSOLUBLE DRUGS” (Boston Scientific Scimed, Inc., priority 1997, published 2013).

Columns and labels:
[1] = Paclitaxel content of polyurethane coated stents by extraction in dichloromethane; assay type: physicochemical; conditions: 30 mg/ml paclitaxel concentration
Protocol: Slotted tube stainless steel stents are coated with polyurethane by spraying a 1 wt % solution of CHRONOFLEX® polyurethane (made by CT Biomaterials) in tetrahydrofuran directly onto the stent surface. The coated stents are dried in a vacuum oven for three hours at 70° C.
Each polyurethane coated stent is placed in a vial, which is filled to maximum volume (1.5 ml) with a solution of paclitaxel in ethanol, and sealed. The stent is stored in the vial for three days at room temperature. The stent is then removed from the vial and dried for one hour at 65° C.
The above procedure is conducted using solutions of varying concentrations. Each stent is analyzed for paclitaxel content by extraction in dichloromethane solvent. Samples 1 and 2 were obtained using a paclitaxel concentration of 10 mg/ml, samples 3 and 4 using a 20 mg/ml solution and sample 5 and 6 using a 30 mg/ml solution.
Seven polyurethane coated stents are loaded using a 30 mg/ml paclitaxel solution, removed and dried as set forth above. Paclitaxel from four of the stents is extracted in dichloromethane solvent.

[2] = Saturation concentration of paclitaxel in ethanol; assay type: physicochemical
Protocol: Nevertheless, the 30 mg/ml paclitaxel concentration is chosen for release studies as it produces the maximum paclitaxel loading (21-23%), while still being sufficiently below the saturation concentration for paclitaxel in ethanol (39 mg/ml).

[3] = In-vivo delivery of paclitaxel from polyacrylic acid-based coated balloon catheter; parameters: species or system pig; conditions: for Amount of paclitaxel released in bloodstream: loaded minus extracted; for Amount of paclitaxel extracted from balloon after delivery: polyacrylic acid-based coated balloon catheter
Protocol: A 9.8 mg/ml solution of radio-labeled paclitaxel in chloroform is prepared. A total of 50 μl of the solution is applied via pipet to a balloon catheter having a polyacrylic acid-based coating. The paclitaxel from the coated balloon catheter is then released in-vivo to porcine arteries. After release for a predetermined amount of time, the paclitaxel remaining in the coating is extracted using two sequential ethanol washes. The amount of paclitaxel released in the pig bloodstream, as calculated from the amount of paclitaxel loaded into the coating minus that extracted from the coating after delivery, is shown in Table II.

maximum paclitaxel loading [1]: 21-23% | saturation concentration for paclitaxel in ethanol [2]: 39 mg/mL | % of paclitaxel released in bloodstream ([3]; 1 minute in bloodstream): 63% | Amount of paclitaxel released in bloodstream ([3]; 1 minute in bloodstream): 307 µg | Amount of paclitaxel extracted from balloon after delivery ([3]; 1 minute in bloodstream): 182 ± 1 µg | % of paclitaxel released in bloodstream ([3]; 5 minutes in bloodstream): 68% | Amount of paclitaxel released in bloodstream ([3]; 5 minutes in bloodstream): 330 µg | Amount of paclitaxel extracted from balloon after delivery ([3]; 5 minutes in bloodstream): 160 ± 30 µg
Compound: CC(=O)O[C@H]1C(=O)[C@@]2(C)[C@H]([C@H](OC(=O)c3ccccc3)[C@]3(O)C[C@H](OC(=O)[C@H](O)[C@@H](NC(=O)c4ccccc4)c4ccccc4)C(C)=C1C3(C)C)[C@]1(OC(C)=O)CO[C@@H]1C[C@@H]2O [paclitaxel]
